Read-outs that look alike come from different tables or passages of the source.

The record followed here is US8975417B2, “Pyrazolopyrrolidine derivatives and their use in the treatment of disease” (Novartis AG, priority 2013, dated 2015).

The target of assay [1] is His-CREBBP (1081-1197) bromodomain (Homo sapiens (Human), UniProt Q92793). As to the kind of experiment: AlphaScreen in-vitro binding assay for CREBBP. The note with it: biochemical. The method, boiled down:
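Ni-chelate acceptor and streptavidin donor beads (45 µg/mL each, in 50 mM HEPES pH 7.5, 150 mM NaCl, 0.02% BSA) were then added for 60 min at room temperature. IC50 came from 8-point non-linear regression.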

A further assay deals with K-562 cells. As to the kind of experiment: Cell growth inhibition assay (CellTiter-Glo), K-562. The class given is cell-based, human. The method, boiled down: (§1)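 Dose-response over 3-fold dilutions from 10 μM; 0.1% DMSO control. Endpoint: CellTiter-Glo ATP signal, background-subtracted and day 0-corrected.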
The next assay concerns the target His-Brd4(44-477) (Homo sapiens (Human), UniProt O60885). As to the kind of experiment: TR-FRET in-vitro binding assay for BRD4. The note with it: biochemical. The essentials: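 Eight-point dilution series tested against in-house His-BRD2(60-472), BRD3(20-477) or BRD4(44-477) (45 nM in dispensed solution) binding acetyl-histone H4 (AcK5,8,12,16; 60 nM in dispensed solution). Incubation 35 min at 30 °C, pH 7.5 HEPES buffer; detection by TR-FRET using Eu-anti-His6 and streptavidin-allophycocyanin.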

Another assay deals with THP-1 cells. Nature of the assay: Cell growth inhibition assay (CellTiter-Glo), THP-1. The class given is cell-based. The conditions noted are these: Homo sapiens, read-out: THP-1 TGI. The essentials: as §1
(In general: In ATP-based viability assays light output follows the ATP content of the culture.)

Setting [2] is: Homo sapiens, K562, read-out: K-562 TGI.

Chain of His-CREBBP (1081-1197) bromodomain (Q92793 1081-1197): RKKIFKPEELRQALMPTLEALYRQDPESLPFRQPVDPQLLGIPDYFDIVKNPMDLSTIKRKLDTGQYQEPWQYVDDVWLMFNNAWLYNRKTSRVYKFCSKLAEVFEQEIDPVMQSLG

Take `COc1ncc(-n2nc(C)c3c2C(=O)N(c2cc(C)c(=O)n(C)c2)C3c2ccc(Cl)cc2)c(OC)n1` (racemic) [Example 52, 4-(4-chlorophenyl)-1-(2,4-dimethoxypyrimidin-5-yl)-5-(1,5-dimethyl-6-oxo-1,6-dihydropyridin-3-yl)-3-methyl-4,5-dihydropyrrolo[3,4-c]pyrazol-6(1H)-one]: the IC50 in assay [1] worked out at 5700 nM; on His-Brd4(44-477) it was 87 nM. Besides, the IC (total growth inhibition) in the assay on K-562 cells (read-out: K-562 TGI) is reported as >10 µM.

In the case of `Cc1nn(-c2ccnn2C)c2c1C(c1ccc(Cl)cc1)N(c1cc(C)c(=O)n(C)c1)C2=O` (racemic) [Example 74, 4-(4-chlorophenyl)-5-(1,5-dimethyl-6-oxo-1,6-dihydropyridin-3-yl)-3-methyl-1-(1-methyl-1H-pyrazol-5-yl)-4,5-dihydropyrrolo[3,4-c]pyrazol-6(1H)-one], the results for the IC50 (in assay [1]; at His-Brd4(44-477)) were 6400 nM and 67 nM, respectively. In addition, the IC (total growth inhibition) in the assay on K-562 cells (read-out: K-562 TGI) is given as >10 µM.

`Cc1cc(N2C(=O)c3c(cnn3C3CC3)C2c2ccc(Cl)cc2)cn(C)c1=O` (centres unmarked) [Example 34, 4-(4-chlorophenyl)-1-cyclopropyl-5-(1,5-dimethyl-6-oxo-1,6-dihydropyridin-3-yl)-4,5-dihydropyrrolo[3,4-c]pyrazol-6(1H)-one]: the results for the IC50 (in assay [1]; on His-Brd4(44-477)) were 5200 nM and 110 nM, respectively. Also, the IC (total growth inhibition) with K-562 cells (setting [2]) is > 10 µM; with THP-1 cells, 0.321 µM.

As for `Cn1cc(N2C(=O)c3c(c(C(F)(F)F)nn3C3CC3)C2c2ccc(Cl)cc2)cc(Cl)c1=O` (centres unmarked) [Example 44, 5-(5-chloro-1-methyl-6-oxo-1,6-dihydropyridin-3-yl)-4-(4-chlorophenyl)-1-cyclopropyl-3-(trifluoromethyl)-4,5-dihydropyrrolo[3,4-c]pyrazol-6(1H)-one], the IC50 in assay [1] came to 3900 nM; on His-Brd4(44-477) it was 210 nM. The IC (total growth inhibition) is > 10 µM in the assay on K-562 cells (setting [2]) and 0.484 µM with THP-1 cells.

In the case of `Cc1nn(C2CC2)c2c1[C@@H](c1ccc(Cl)cc1)N(c1cc(C)c(=O)n(C)c1)C2=O` [Example 49, (R)-4-(4-chlorophenyl)-1-cyclopropyl-5-(1,5-dimethyl-6-oxo-1,6-dihydropyridin-3-yl)-3-methyl-4,5-dihydropyrrolo[3,4-c]pyrazol-6(1H)-one], the IC50 is 1300 nM in assay [1] and 17 nM on His-Brd4(44-477). The IC (total growth inhibition) with K-562 cells (setting [2]) is > 10 µM; in the assay on THP-1 cells it was 0.0603 µM.

For `Cc1nn(C2CC2)c2c1[C@@H](c1ccc(Cl)cc1)N(c1cc(Cl)c(=O)n(C)c1)C2=O` [Example 51, (R)-5-(5-chloro-1-methyl-6-oxo-1,6-dihydropyridin-3-yl)-4-(4-chlorophenyl)-1-cyclopropyl-3-methyl-4,5-dihydropyrrolo[3,4-c]pyrazol-6(1H)-one], the IC50 came out at 1400 nM in assay [1] and 20 nM on His-Brd4(44-477). In addition, the IC (total growth inhibition) is > 10 µM in the assay with K-562 cells (setting [2]) and 0.126 µM with THP-1 cells.

`COc1ncc(-n2nc3c(c2C(C)C)C(c2ccc(Cl)cc2)N(c2ccc4onc(C)c4c2)C3=O)c(OC)n1` (centres unmarked) [Example 54, 4-(4-chlorophenyl)-2-(2,4-dimethoxypyrimidin-5-yl)-3-isopropyl-5-(3-methylbenzo-[d]isoxazol-5-yl)-4,5-dihydropyrrolo[3,4-c]pyrazol-6(2H)-one]: the IC50 is > 37000 nM in assay [1] and 260 nM on His-Brd4(44-477). The IC (total growth inhibition) in the assay with K-562 cells (setting [2]) was > 10 µM; in the assay on THP-1 cells it was 1.43 µM.

For `COc1ncc(-n2nc3c(c2C)C(c2ccc(Cl)cc2)N(c2cc(Cl)c(=O)n(C)c2)C3=O)c(OC)n1` (centres unmarked) [Example 55, 5-(5-chloro-1-methyl-6-oxo-1,6-dihydropyridin-3-yl)-4-(4-chlorophenyl)-2-(2,4-dimethoxypyrimidin-5-yl)-3-methyl-4,5-dihydropyrrolo[3,4-c]pyrazol-6(2H)-one], the results for the IC50 (in assay [1]; on His-Brd4(44-477)) were 600 nM and 150 nM, respectively. In addition, the results for the IC (total growth inhibition) in the assay with K-562 cells (setting [2]) and in the assay on THP-1 cells were > 10 µM and 0.364 µM, respectively.

With `CCc1nn(C2CC2)c2c1C(c1ccc(Cl)cc1)N(c1cc(C)c3nnc(C)n3c1)C2=O` (centres unmarked) [Example 70, 4-(4-chlorophenyl)-1-cyclopropyl-5-(3,8-dimethyl-[1,2,4]triazolo[4,3-a]pyridin-6-yl)-3-ethyl-4,5-dihydropyrrolo[3,4-c]pyrazol-6(1H)-one], the results for the IC50 (in assay [1]; on His-Brd4(44-477)) were 11000 nM and 24 nM, respectively. Further, the IC (total growth inhibition) was > 10 µM in the assay with K-562 cells (setting [2]) and 0.0305 µM in the assay on THP-1 cells.

`COc1ncccc1-n1nc(C)c2c1C(=O)N(c1cc(Cl)c(=O)n(C)c1)C2c1ccc(Cl)cc1` (centres unmarked) [Example 72, 5-(5-chloro-1-methyl-6-oxo-1,6-dihydropyridin-3-yl)-4-(4-chlorophenyl)-1-(2-methoxypyridin-3-yl)-3-methyl-4,5-dihydropyrrolo[3,4-c]pyrazol-6(1H)-one]: the half-inhibitory concentration (IC50) in assay [1] came to 8200 nM; at His-Brd4(44-477), 79 nM. For the same compound, the IC (total growth inhibition) in the assay on K-562 cells (setting [2]) is > 10 µM; with THP-1 cells, 0.408 µM.

Turning to `Cc1cc(N2C(=O)c3nn(C)c(O)c3C2c2ccc(Cl)cc2)cn(C)c1=O` (centres unmarked) [Example 73, 4-(4-chlorophenyl)-5-(1,5-dimethyl-6-oxo-1,6-dihydropyridin-3-yl)-3-hydroxy-2-methyl-4,5-dihydropyrrolo[3,4-c]pyrazol-6(2H)-one], the IC50 in assay [1] came to 2000 nM; at His-Brd4(44-477), 210 nM. For the same compound, the IC (total growth inhibition) with K-562 cells (setting [2]) and in the assay with THP-1 cells was > 10 µM in each case.

In the case of `CCOc1c2c(nn1C)C(=O)N(c1cc(C)c(=O)n(C)c1)C2c1ccc(Cl)cc1` (centres unmarked) [Example 76, 4-(4-chlorophenyl)-5-(1,5-dimethyl-6-oxo-1,6-dihydropyridin-3-yl)-3-ethoxy-2-methyl-4,5-dihydropyrrolo[3,4-c]pyrazol-6(2H)-one], the IC50 came to 2900 nM in assay [1] and 120 nM on His-Brd4(44-477). In addition, the IC (total growth inhibition) in the assay with K-562 cells (setting [2]) is > 10 µM; with THP-1 cells, 0.3 µM.

As for `COc1c2c(nn1C)C(=O)N(c1cc(C)c(=O)n(C)c1)C2c1ccc(Cl)cc1` (centres unmarked) [Example 77, 4-(4-chlorophenyl)-5-(1,5-dimethyl-6-oxo-1,6-dihydropyridin-3-yl)-3-methoxy-2-methyl-4,5-dihydropyrrolo[3,4-c]pyrazol-6(2H)-one], the IC50 was determined as 1900 nM in assay [1] and 130 nM on His-Brd4(44-477). In addition, the values for the IC (total growth inhibition) in the assay with K-562 cells (setting [2]) and in the assay with THP-1 cells were > 10 µM and 0.37 µM, respectively.

In the case of `CCc1nn(CCO)c2c1C(c1ccc(Cl)cc1)N(c1cc(C)c(=O)n(C)c1)C2=O` (centres unmarked) [Example 78, 4-(4-chlorophenyl)-5-(1,5-dimethyl-6-oxo-1,6-dihydropyridin-3-yl)-3-ethyl-1-(2-hydroxyethyl)-4,5-dihydropyrrolo[3,4-c]pyrazol-6(1H)-one], the IC50 in assay [1] was determined as 3100 nM; at His-Brd4(44-477), 63 nM. Moreover, the IC (total growth inhibition) in the assay on K-562 cells (setting [2]) was > 10 µM; in the assay with THP-1 cells it was 0.223 µM.

For the compound `CCc1nn(CCO)c2c1C(c1ccc(Cl)cc1)N(c1cc(C)c3onc(C)c3c1)C2=O` (centres unmarked) [Example 79, 4-(4-chlorophenyl)-5-(3,7-dimethylbenzo[d]isoxazol-5-yl)-3-ethyl-1-(2-hydroxyethyl)-4,5-dihydropyrrolo[3,4-c]pyrazol-6(1H)-one], the IC50 came out at 11000 nM in assay [1] and 78 nM on His-Brd4(44-477). Further, the IC (total growth inhibition) was > 10 µM with K-562 cells (setting [2]) and 0.461 µM in the assay with THP-1 cells.

With `CCc1c2c(nn1CCO)C(=O)N(c1cc(C)c3onc(C)c3c1)C2c1ccc(Cl)cc1` (centres unmarked) [Example 80, 4-(4-chlorophenyl)-5-(3,7-dimethylbenzo[d]isoxazol-5-yl)-3-ethyl-2-(2-hydroxyethyl)-4,5-dihydropyrrolo[3,4-c]pyrazol-6(2H)-one], the IC50 in assay [1] was found to be 5000 nM; at His-Brd4(44-477), 35 nM. The values for the IC (total growth inhibition) in the assay on K-562 cells (setting [2]) and in the assay on THP-1 cells were > 10 µM and 1.03 µM, respectively.

Take `Cc1ncccc1-n1nc2c(c1C)C(c1ccc(Cl)cc1)N(c1cc(C)c(=O)n(C)c1)C2=O` (centres unmarked) [Example 81, 4-(4-chlorophenyl)-5-(1,5-dimethyl-6-oxo-1,6-dihydropyridin-3-yl)-3-methyl-2-(2-methylpyridin-3-yl)-4,5-dihydropyrrolo[3,4-c]pyrazol-6(2H)-one]: the IC50 is 920 nM in assay [1] and 110 nM on His-Brd4(44-477). Moreover, the IC (total growth inhibition) with K-562 cells (setting [2]) was > 10 µM; in the assay with THP-1 cells it was 0.422 µM.

For the compound `Cc1ncccc1-n1nc(C)c2c1C(=O)N(c1cc(C)c(=O)n(C)c1)C2c1ccc(Cl)cc1` (centres unmarked) [Example 82, 4-(4-chlorophenyl)-5-(1,5-dimethyl-6-oxo-1,6-dihydropyridin-3-yl)-3-methyl-1-(2-methylpyridin-3-yl)-4,5-dihydropyrrolo[3,4-c]pyrazol-6(1H)-one], the values for the IC50 (in assay [1]; on His-Brd4(44-477)) were 6500 nM and 68 nM, respectively. For the same compound, the IC (total growth inhibition) in the assay on K-562 cells (setting [2]) was > 10 µM; with THP-1 cells it was 0.406 µM.

`Cc1nn(-c2cncn2C)c2c1C(c1ccc(Cl)cc1)N(c1cc(C)c(=O)n(C)c1)C2=O` (centres unmarked) [Example 83, 4-(4-chlorophenyl)-5-(1,5-dimethyl-6-oxo-1,6-dihydropyridin-3-yl)-3-methyl-1-(1-methyl-1H-imidazol-5-yl)-4,5-dihydropyrrolo[3,4-c]pyrazol-6(1H)-one]: the figures for the half-inhibitory concentration (IC50) (in assay [1]; at His-Brd4(44-477)) were 6100 nM and 91 nM, respectively. In addition, the IC (total growth inhibition) in the assay on K-562 cells (setting [2]) is > 10 µM; with THP-1 cells, 0.396 µM.

As usually defined, the IC50 is the midpoint of a concentration-inhibition curve. A high value points to weaker potency.
